Results published in patent publication US20240336583A1, “BENZO-RING-CONTAINING DERIVATIVE, AND PREPARATION METHOD THEREFOR AND USE THEREOF” (SHUJING BIOPHARMA CO., LTD, priority 2021, published 2024).

How the values were obtained:
Type in all cases: in vivo
ICR mice [1] = assay: Mouse righting reflex test (ED50, sequential method, tail vein bolus); conditions: for Symptoms in test animals in ED50 test: after tail vein administration; for ED50 (median effective dose: dose required to cause 50% of the mice to lose the righting reflex) / ED50: tail vein bolus within 10 seconds, sequential method, AOT425 software; for ED50: Mus musculus, read-out: ED50 (median effective dose: dose required to cause 50% of the mice to lose the righting reflex)
Procedure: The ED50 value and LD50 value of the compound of the present invention were measured using a sequential method. The TI (therapeutic index) of the drug was calculated.
(§1) SPF grade ICR mice (Pizhou Oriental Breeding Co., Ltd.), 22-28 g, 15 mice/group. All mice received 3 days of quarantine and acclimation and were transferred from the feeding room to the laboratory for acclimation 1 h prior to the experiment.
(§2) The test compound was dissolved in 20% fat emulsion or purified water to prepare a 5 mg/ml drug liquid.
(§3) During the test, firstly a mouse was dosed at the tail vein, and the bolus injection was completed within 10 seconds. […] Finally, the AOT425 Statpm software was used to calculate the ED50 (median effective dose: the dose required to cause 50% of the mice to lose the righting reflex by the test) and LD50 (median lethal dose: the dose required to cause 50% of the mice to die by the test) values. The formula for TI (therapeutic index) was: TI=LD50/ED50.

[2] = Mouse LD50 test (sequential method, tail vein bolus); conditions: mouse, in vivo, intravenous; ICR mice, tail vein bolus within 10 seconds, sequential method, AOT425 software; read-out: LD50 (median lethal dose: dose required to cause 50% of the mice to die)
Procedure: (§4) The ED50 value and LD50 value of the compound of the present invention were measured using a sequential method. The TI (therapeutic index) of the drug was calculated. The animal symptoms in the experimental process were observed, and the drug effect, safety and side effects of the compound of the present invention were examined.
as §1, §2, §3

ICR mice [3] = assay: as above; conditions: TI=LD50/ED50, ICR mice, tail vein
Procedure: as §4, §1, §2, §3

CC1COc2c(F)cc(C(C)C3CC3)c(O)c21 (single isomer, unassigned) [Example 4, 5-(1-cyclopropylethyl)-7-fluoro-3-methyl-2,3-dihydrobenzofuran-4-ol]
Symptoms in test animals in ED50 test (ICR mice [1]): The animals' condition was stable after
ED50 (median effective dose: dose required to cause 50% of the mice to lose the righting reflex) (ICR mice [1]): 8.9 mg/kg
LD50 [2]: 62.5 mg/kg
TI (therapeutic index) (ICR mice [3]): 7.0

CC1COc2c(F)cc(C(C)C3CC3)c(OCOP(=O)([O-])[O-])c21.[Na+].[Na+] (single isomer, unassigned) [Example 10A1, sodium (5-(1-cyclopropyl)-7-fluoro-3-methyl-2,3-dihydrobenzofuran-4-yl) oxymethyl phosphate]
Symptoms in test animals in ED50 test (ICR mice [1]): The animals' condition was stable after

CC1COc2c(F)cc(C(C)C3CC3)c(O)c21 (single isomer, unassigned) [Example 11A1, 5-(1-cyclopropylethyl)-7-fluoro-3-methyl-2,3-dihydrobenzofuran-4-ol]
Symptoms in test animals in ED50 test (ICR mice [1]): The animals' condition was stable after
ED50 (median effective dose: dose required to cause 50% of the mice to lose the righting reflex) (ICR mice [1]): 4.0 mg/kg

CC(C)c1cccc(C(C)C)c1OCOP(=O)(O)O [Fospropofol sodium, reference compound]
ED50 (ICR mice [1]): 112 mg/kg

CC(C)c1cccc(C(C)C)c1O [Propofol, reference compound]
ED50 (ICR mice [1]): 12.9 mg/kg
Symptoms in test animals in ED50 test (ICR mice [1]): Some animals exhibited body twitching and
LD50 [2]: 55.9 mg/kg
TI (therapeutic index) (ICR mice [3]): 4.3
